Where two headings read alike, the source gives them in different places.
Assays:
[1] = system: LPS-neuroinflammatory mouse model; assay: Novel object recognition (NOR) test in LPS-neuroinflammatory mouse model; type: in vivo, Swiss albino mice; conditions: drug control group (saline + LCA 20 mg/kg ip) vs control group
From the text: (§1) A neuroinflammatory mouse model induced by LPS was developed as described before by Lee et al. ([2008a]). This neuroinflammatory model was well-characterized previously by our research group, showing memory impairment, neuroinflammation, and neurodegenerative changes in the cortex and hippocampus (Zakaria et al. [2016]; Abdel-Kader et al. [2021]; Samir et al. [2023]; Wagdy et al. [2023]).
(§2) Mice were divided randomly into four groups as follows: (i) control group, mice received vehicle injections (saline followed by DMSO/corn-oil vehicle); (ii) LPS onlygroup, LPS followed by the DMSO/corn-oil vehicle; (iii) treatment group, LPS followed by LCA; and (iv) drug control group, saline followed by LCA. […] This timing also avoids potential direct pharmacological interaction and is consistent with previous post-LPS treatment protocols (Zakaria et al. [2016]; Badshah et al. [2016]).
(§3) The behavioral assessment was performed 24 h after the final dose (day 8), after which all mice were sacrificed, and their brains were collected for subsequent bioanalysis (Fig. 1).
A total number of 40 mice were randomly assigned into four groups (n = 10 per group) before performing the behavioral experiments and kept blinded throughout the study until all data had been collected. The experimental unit in these assays was a single animal, and the primary outcomes were memory and cognitive functions. […]

[2] = system: LPS-neuroinflammatory mouse model; assay: Y-maze spontaneous alternation test in LPS-neuroinflammatory mouse model; type: in vivo, Swiss albino mice
Description: as §1, with “[2023]). […]” for “[2023]).”
The short-term spatial working memory and exploratory activity of the mice were assessed using the Y-maze spontaneous alteration test, according to the working protocol of Arai et al. ([2001]). […] The sequences of animal’s entries in the arms were recorded. For an entry to be counted, the four paws and the tail of the animal have to be inside the arm. […] Working memory was calculated based on the number of spontaneous alternations, which is defined as successive entries into three distinct arms consecutively without any repeated entry to any of the arms. The results were expressed as “spontaneous alternation percentage” using the equation: % spontaneous alternation = [Spontaneous alternations/(Total number of entries − 2)] × 100.

[3] = Permeability of LCA across BBB: GC-MS/MS detection and quantification in brain tissue after the treatment regimen; type: in vivo, Swiss albino mice; conditions: treated (LPS + LCA) and drug control groups; peak at RT 11.22 min
From the text: as §2, §3
(§4) Mice were sacrificed by cervical dislocation, and their brains were collected and separated from the cerebellum. The collected brains were washed with ice-cold Tris buffer (5 mM, pH 7.4) and then homogenized with 1 mL of the Tris buffer/100 mg brain using the 5-mL Dounce homogenizer. The brain homogenates were stored at − 80 °C till analysis. […] The homogenization included the entire brain components, allowing for a comprehensive analysis of LCA in the samples.
Brain homogenates were removed from the − 80 °C freezer and allowed to come to room temperature. […]
For both qualitative and quantitative analysis on mice brain samples, the MSD was operated in time-segmented MRM mode for the selected transition ions.

[4] = Pharmacokinetic study of LCA in mice brain tissues (non-compartmental analysis); type: in vivo, Swiss albino mice
Description: as §4
Brain homogenates were removed from the − 80 °C freezer and allowed to come to room temperature. Brain matrix extraction was performed as described before (Paulke et al. [2006]) with slight modifications. Briefly, in tightly sealed polypropylene tubes, 300 µL brain homogenate was mixed with 300 µL methanol, 200 µL tert-butyl hydroquinone (TBHQ) solution (5 mg/mL), and 200 µL HCl (1 M). The reaction mixture was vortexed for 1 min and inserted into a heat block at 90 °C for 2 h. The reaction tubes were then centrifuged at 3700 × g for 10 min, and the supernatant was collected in micro-centrifuge tubes and transferred for derivatization.
The chosen method for derivatization in this study involves silylation, utilizing the N, O-Bis(trimethylsilyl) trifluoroacetamide (BSTFA) as a silylating agent. The derivatization reaction is employed to produce silyl derivatives of the analyte, which are more volatile and more thermally stable. The reaction replaces active hydrogens with trimethylsilyl groups (TMS) through SN2 nucleophilic attack (Halket and Zaikin [2003]). Extracted samples or reference standards were first placed in a vacuum concentrator for 2 h before performing the derivatization reaction to ensure complete dryness. Dried sample residues were derivatized by adding 150 µL of the mixture of BSTFA and pyridine in a (4:1) ratio into the samples’ tubes. The derivatization reaction was performed at 60 °C for 1 h (Fig. 2). The tubes were centrifuged at 21,460 × g for 1 min and transferred to glass vials suitable for GC–MS/MS analysis.
For pharmacokinetic analysis, 30 adult male Swiss albino mice were randomly divided into six groups (n = 5 for each group), according to sample collection times. […] Mice were sacrificed, and brain tissues were collected after 0, 2, 4, 6, 8, and 24 h post-dosing and were then kept at − 80 °C before sample treatment. Collected brain samples were then extracted and derivatized as described previously and then further analyzed using the GC–MS/MS in MRM mode using the established MRM transitions. Pharmacokinetic parameters were determined by non-compartmental analysis using PK solutions software, version 2.0 (Summit Research Services).

[5] = design: method as in Weng et al. [2019]; conditions: ref Weng et al. [2019], cited from earlier work
[6] = male, Swiss albino, mouse, brain, ip, 20 mg/kg
[7] = single ip 20 mg/kg LCA after 7 days LPS, brain tissue, mean ± SD, n = 5
[8] = intravenous 5 mg/kg single dose

detection of LCA in brain (passage of BBB) [3]: presence of LCA peak
Tmax [4, 6]: 4 h
half-life [4, 6]: 17.1 ± 5.98 h
MRT last ([4]; male, Swiss albino, mouse, brain, ip, 20 mg/kg, read-out: MRT0-t): 10.5 ± 0.69 h
Cl/F [4, 7]: 17.90 ± 5.33 (mg/kg)/h
Vz/F [4, 7]: 529.74 ± 139.18 mg/kg
concentration in brain tissue until 8 h post-injection ([4]; single ip 20 mg/kg LCA after 7 days LPS, up to 8 h post-injection): above 15 µg/mg
SMILES: C=CC(C)(C)c1cc(/C=C/C(=O)c2ccc(O)cc2)c(OC)cc1O [LCA, (2E)−3-[4-Hydroxy-2-methoxy-5-(2-methylbut-3-en-2-yl)phenyl]−1-(4-hydroxyphenyl)prop-2-en-1-one]
non-spatial memory (NOR), LCA alone vs control [1]: did not show alteration
explorative behavior / spatial short-term memory (spontaneous alternation %, Y-maze) ([2]; LPS + LCA vs LPS group, LCA 20 mg/kg ip days 4-7, LPS 250 µg/kg ip days 1-7, tested day 8, p < 0.01): restored the explorative behavior
spatial short-term memory (Y-maze), LCA alone vs control ([2]; drug control group (saline + LCA 20 mg/kg ip) vs control group): did not show alteration
Cmax (plasma) [5, 8]: 3173.5 ± 483.0 ng/mL
Tmax (plasma) [5, 8]: 0.0833 h
Cmax (plasma) ([5]; oral 15 mg/kg single dose): 60.7 ± 13.9 ng/mL
Tmax (plasma) ([5]; oral 15 mg/kg single dose): 0.5 h
